Target: T1, human MC5R (hMC5R) (Homo sapiens, UniProt P33032)
T1 construct: purchased Perkin Elmer RBXMC5M400UA
Assay: Human MC5R radioligand binding assay (membranes, [125I] NDP-MSH displacement)
Conditions: hMC5R binding; tested as trifluoroacetate or hydrochloride salts, or free bases; read-out: MC5R radioligand IC50
Outline: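 Frozen human MC5R membranes incubated with test compound and in-house iodogen-labeled, HPLC-purified [125I]NDP-MSH for 1 hr at 37° C. Binding measured as displacement of the radioligand.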

T1 sequence (P33032 whole entry): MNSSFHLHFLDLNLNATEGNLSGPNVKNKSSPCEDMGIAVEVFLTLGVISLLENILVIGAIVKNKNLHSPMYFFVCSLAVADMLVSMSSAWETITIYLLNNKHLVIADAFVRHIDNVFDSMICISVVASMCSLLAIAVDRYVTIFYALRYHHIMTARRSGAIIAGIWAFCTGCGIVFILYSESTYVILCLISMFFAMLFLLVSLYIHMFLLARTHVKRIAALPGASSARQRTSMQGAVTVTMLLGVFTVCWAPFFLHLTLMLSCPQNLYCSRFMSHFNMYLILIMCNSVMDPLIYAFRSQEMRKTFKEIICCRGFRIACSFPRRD

| IC50 [µM] | SMILES |
| --- | --- |
| < 1 | NCCC[C@@H]1N[C@H](CNC(=O)COc2ccc(F)cc2)CCN(CC(c2ccccc2)c2ccccc2)C1=O [Compound 233, N-(((3S,5S)-3-(3-aminopropyl)-1-(2,2-diphenylethyl)-2-oxo-1,4-diazepan-5-yl)methyl)-2-(4-fluorophenoxy)acetamide] |
| < 0.1 | O=C(NC[C@@H]1CCN(CC(c2ccccc2)c2ccccc2)C(=O)[C@H](CCCN2CCCC2)N1)c1ccc2ccccc2c1 [Compound 261, N-(((3S,5S)-1-(2,2-diphenylethyl)-2-oxo-3-(3-(pyrrolidin-1-yl)propyl)-1,4-diazepan-5-yl)methyl)-2-naphthamide] |
| < 1 | N=C(N)NCCC[C@@H]1N[C@H](CNC(=O)c2ccc3ccccc3c2)CCN(C[C@@H](NC(=O)C2CCC2)c2ccccc2)C1=O [Compound 269, N-(((3S,5S)-1-((S)-2-(cyclobutanecarboxamido)-2-phenylethyl)-3-(3-guanidinopropyl)-2-oxo-1,4-diazepan-5-yl)methyl)-2-naphthamide] |
| < 0.1 | CC[C@@H](CN1CC[C@@H](CNC(=O)c2ccc(Cl)c(Cl)c2)N[C@@H](CCN2CCCCC2)C1=O)C(C)C [Compound 461, 3,4-dichloro-N-(((3S,5S)-1-((R)-2-ethyl-3-methylbutyl)-2-oxo-3-(2-(piperidin-1-yl)ethyl)-1,4-diazepan-5-yl)methyl)benzamide] |
| < 1 | NCCC[C@@H]1N[C@H](CNC(=O)c2ccc3ccccc3c2)CCN(Cc2cc(F)cc(Cl)c2)C1=O [Compound 312, N-(((3S,5S)-3-(3-aminopropyl)-1-(3-chloro-5-fluorobenzyl)-2-oxo-1,4-diazepan-5-yl)methyl)-2-naphthamide] |
| < 1 | C[C@H](CN1CC[C@@H](CNC(=O)c2ccc3ccccc3c2)N[C@@H](CCN2CCCCC2)C1=O)c1ccc(Cl)cc1 [Compound 424, N-(((3S,5S)-1-((S)-2-(4-chlorophenyl)propyl)-2-oxo-3-(2-(piperidin-1-yl)ethyl)-1,4-diazepan-5-yl)methyl)-2-naphthamide] |
| < 0.1 | CC[C@H](CN1CC[C@@H](CNC(=O)c2ccc(Cl)c(Cl)c2)N[C@@H](CCN2CCC(C(=O)O)CC2)C1=O)c1ccccc1 [Compound 451, 1-(2-((2S,7S)-7-((3,4-dichlorobenzamido)methyl)-3-oxo-4-((S)-2-phenylbutyl)-1,4-diazepan-2-yl)ethyl)piperidine-4-carboxylic acid] |
| < 1 | CC(C)(NC(=O)/C=C/c1ccc(Cl)cc1)[C@@H]1CCN(CC(c2ccccc2)c2ccccc2)C(=O)[C@H](CCN)N1 [Compound 419, (E)-N-(2-((3S,5S)-3-(2-aminoethyl)-1-(2,2-diphenylethyl)-2-oxo-1,4-diazepan-5-yl)propan-2-yl)-3-(4-chlorophenyl)acrylamide] |
| < 10 | CCCCC(CC)C(=O)NC[C@@H]1CCN(CC(c2ccccc2)c2ccccc2)C(=O)[C@H](CCCN)N1 (stereo partly drawn) [Compound 221, N-(((3S,5S)-3-(3-aminopropyl)-1-(2,2-diphenylethyl)-2-oxo-1,4-diazepan-5-yl)methyl)-2-ethylhexanamide] |
| < 0.1 | CC(C)c1ccc(/C=C/C(=O)NC[C@@H]2CCN(CC(c3ccccc3)c3ccccc3)C(=O)[C@H](CCN3CCCCC3)N2)cc1 [Compound 396, (E)-N-(((3S,5S)-1-(2,2-diphenylethyl)-2-oxo-3-(2-(piperidin-1-yl)ethyl)-1,4-diazepan-5-yl)methyl)-3-(4-isopropylphenyl)acrylamide] |
| < 0.1 | CC[C@H](CN1CC[C@@H](CNC(=O)c2ccc3cc(Cl)ccc3c2)N[C@@H](CNC(=N)N)C1=O)c1ccccc1 [Compound 500, 6-chloro-N-(((3S,5S)-3-(guanidinomethyl)-2-oxo-1-((S)-2-phenylbutyl)-1,4-diazepan-5-yl)methyl)-2-naphthamide] |
| < 0.1 | CC[C@H](CN1CC[C@@H](CNC(=O)c2ccc3ccccc3c2OC)N[C@@H](CCN2CCCCC2)C1=O)c1ccccc1 [Compound 538, 1-methoxy-N-(((3S,5S)-2-oxo-1-((S)-2-phenylbutyl)-3-(2-(piperidin-1-yl)ethyl)-1,4-diazepan-5-yl)methyl)-2-naphthamide] |
| < 0.1 | O=C(NC[C@@H]1CCN(Cc2ccc(Cl)cc2Cl)C(=O)[C@H](CCN2CCCCC2)N1)c1ccc2cc(Cl)ccc2c1 [Compound 508, 6-chloro-N-(((3S,5S)-1-(2,4-dichlorobenzyl)-2-oxo-3-(2-(piperidin-1-yl)ethyl)-1,4-diazepan-5-yl)methyl)-2-naphthamide] |
| < 0.1 | CC[C@H](CN1CC[C@@H](CNC(=O)c2ccc(Cl)c(Cl)c2)N[C@@H](CCN(CC)CC)C1=O)c1ccccc1 [Compound 426, 3,4-dichloro-N-(((3S,5S)-3-(2-(diethylamino)ethyl)-2-oxo-1-((S)-2-phenylbutyl)-1,4-diazepan-5-yl)methyl)benzamide] |
| < 1 | Cc1ccc(/C=C/C(=O)NC[C@@H]2CCN(CC(c3ccccc3)c3ccccc3)C(=O)[C@H](CCN)N2)c(C)c1 [Compound 399, (E)-N-(((3S,5S)-3-(2-aminoethyl)-1-(2,2-diphenylethyl)-2-oxo-1,4-diazepan-5-yl)methyl)-3-(2,4-dimethylphenyl)acrylamide] |
| < 10 | NCCC[C@@H]1N[C@H](CNC(=O)c2ccc3ccccc3c2)CCN(Cc2ccc(Cl)c(Cl)c2)C1=O [Compound 320, N-(((3S,5S)-3-(3-aminopropyl)-1-(3,4-dichlorobenzyl)-2-oxo-1,4-diazepan-5-yl)methyl)-2-naphthamide] |
| < 1 | CCC(C)(CC)CN1CC[C@@H](CNC(=O)c2ccc3cc(Cl)ccc3c2)N[C@@H](CCN)C1=O [Compound 512, N-(((3S,5S)-3-(2-aminoethyl)-1-(2-ethyl-2-methylbutyl)-2-oxo-1,4-diazepan-5-yl)methyl)-6-chloro-2-naphthamide] |
| < 0.1 | CC[C@H](CN1CC[C@@H](CNC(=O)c2ccc(Cl)c(Cl)c2)N[C@@H](CCNC(C)(C)C)C1=O)c1ccccc1 [Compound 430, N-(((3S,5S)-3-(2-(tert-butylamino)ethyl)-2-oxo-1-((S)-2-phenylbutyl)-1,4-diazepan-5-yl)methyl)-3,4-dichlorobenzamide] |
| < 0.1 | C=C(C)[C@@H](CC)CN1CC[C@@H](CNC(=O)c2ccc3cc(Cl)ccc3c2)N[C@@H](CCN2CCCCC2)C1=O [Compound 478, 6-chloro-N-(((3S,5S)-1-((R)-2-ethyl-3-methylbut-3-enyl)-2-oxo-3-(2-(piperidin-1-yl)ethyl)-1,4-diazepan-5-yl)methyl)-2-naphthamide] |
| < 0.1 | CCC(C)(CC)CN1CC[C@@H](CNC(=O)c2ccc3cc(Cl)ccc3c2)N[C@@H](CCN2CCCCC2)C1=O [Compound 513, 6-chloro-N-(((3S,5S)-1-(2-ethyl-2-methylbutyl)-2-oxo-3-(2-(piperidin-1-yl)-ethyl)-1,4-diazepan-5-yl)methyl)-2-naphthamide] |
| < 0.1 | N=C(N)NCCC[C@@H]1N[C@H](CNC(=O)c2ccc3ccccc3c2)CCN(CC(c2ccc(F)cc2)c2ccc(F)cc2)C1=O [Compound 250, N-(((3S,5S)-1-(2,2-bis(4-fluorophenyl)ethyl)-3-(3-guanidinopropyl)-2-oxo-1,4-diazepan-5-yl)methyl)-2-naphthamide] |
| < 1 | CCC(CC)CN1CC[C@@H](CNC(=O)c2ccc3cc(F)ccc3c2)N[C@@H](CCN)C1=O [Compound 369, N-(((3S,5S)-3-(2-aminoethyl)-1-(2-ethylbutyl)-2-oxo-1,4-diazepan-5-yl)methyl)-6-fluoro-2-naphthamide] |

Source: patent US8008291B2 (Mimetica Pty Ltd, priority 2008, dated 2011)
